The values below come from patent publication US7435823B2, “Compounds and methods of use” (Amgen Inc., priority 2004, dated 2008).

Series [1] has as its system Human peripheral blood lymphocytes. As to the kind of experiment: Human mixed lymphocyte reaction (huMLR). It is filed as cell-based. As to conditions: 3H-thymidine incorporation, 6 days, read-out: IC50, inhibition of T-cell activation. The protocol: Human Mixed Lymphocyte Reaction (huMLR):
The purpose of this assay is to test the potency of T cell activation inhibitors in an in vitro model of allogeneic T cell stimulation. Human peripheral blood lymphocytes (hPBL; 2×10^5/well) are incubated with mitomycin C-treated B lymphoblastoid cells (JY cell line; 1×10^5/well) as allogeneic stimulators in the presence or absence of dilutions of potential inhibitor compound in 96-well round-bottom tissue culture plates. These cultures are incubated at 37° C. in 5% CO2 for 6 days total. The proliferative response of the hPBL is measured by ^3H-thymidine incorporation overnight between days 5 and 6 after initiation of culture. Cells are harvested onto glass fiber filters and ^3H-thymidine incorporation into DNA is analyzed by liquid scintillation counter.

Series [2] has as its system Human Umbilical Vein Endothelial cells. As to the kind of experiment: HUVEC proliferation assay, VEGF-stimulated. It is filed as cell-based. As to conditions: 72 h, read-out: inhibition of VEGF-stimulated HUVEC proliferation. The protocol:
HUVEC Proliferation Assay
Human Umbilical Vein Endothelial cells are purchased from Clonetics, Inc., as cryopreserved cells harvested from a pool of donors. These cells, at passage 1, are thawed and expanded in EBM-2 complete medium, until passage 2 or 3. The cells are trypsinized, washed in DMEM+10% FBS+antibiotics, and spun at 1000 rpm for 10 min. Prior to centrifugation of the cells, a small amount is collected for a cell count. After centrifugation, the medium is discarded, and the cells are resuspended in the appropriate volume of DMEM+10% FBS+antibiotics to achieve a concentration of 3×10^5 cells/mL. Another cell count is performed to confirm the cell concentration. The cells are diluted to 3×10^4 cells/mL in DMEM+10% FBS+antibiotics, and 100 μL of cells are added to a 96-well plate. The cells are incubated at 37° C. for 22 h.
Prior to the completion of the incubation period, compound dilutions are prepared. Five-point, five-fold serial dilutions are prepared in DMSO, at concentrations 400-fold greater than the final concentrations desired. 2.5 μL of each compound dilution are diluted further in a total of 1 mL DMEM+10% FBS+antibiotics (400× dilution). Medium containing 0.25% DMSO is also prepared for the 0 μM compound sample. At the 22 h timepoint, the medium is removed from the cells, and 100 μL of each compound dilution is added. The cells are incubated at 37° C. for 2-3 h.
During the compound pre-incubation period, the growth factors are diluted to the appropriate concentrations. Solutions of DMEM+10% FBS+antibiotics, containing either VEGF or bFGF at the following concentrations: 50, 10, 2, 0.4, 0.08, and 0 ng/mL are prepared. For the compound-treated cells, solutions of VEGF at 550 ng/mL or bFGF at 220 ng/mL for 50 ng/mL or 20 ng/mL final concentrations, respectively, are prepared since 10 μL of each will be added to the cells (110 μL final volume). At the appropriate time after adding the compounds, the growth factors are added. VEGF is added to one set of plates, while bFGF is added to another set of plates. For the growth factor control curves, the media on wells B4-G6 of plates 1 and 2 are replaced with media containing VEGF or bFGF at the varying concentrations (50-0 ng/mL). The cells are incubated at 37° C. for an additional 72 h.
At the completion of the 72 h incubation period, the medium is removed, and the cells are washed twice with PBS. After the second wash with PBS, the plates are tapped gently to remove excess PBS, and the cells are placed at −70° C. for at least 30 min. The cells are thawed and analyzed using the CyQuant fluorescent dye (Molecular Probes C-7026), following the manufacturer's recommendations. The plates are read on a Victor/Wallac 1420 workstation at 485 nm/530 nm (excitation/emission). Raw data are collected and analyzed using a 4-parameter fit equation in XLFit. IC50 values are then determined.

As a reminder, the melting point is the temperature, or range, at which the solid turns liquid.

Where two headings read alike, the source gives them in different places.

Consider `COc1cc2nccc(Oc3ccc4c(C(=O)Nc5cc(C(C)(C)C)on5)ccc(C)c4c3)c2cc1OC` [Example 541, 6-((6,7-bis(methoxy)-4-quinolinyl)oxy)-N-(5-(1,1-dimethylethyl)-3-isoxazolyl)-4-methyl-1-naphthalenecarboxamide], for which the IC50 in series [1] was less than 100 nM.
Same read-out and setting: the result for `COc1cc2c(Oc3ccc4c(C(=O)Nc5cc(C(C)(C)C)on5)cccc4c3)ncnc2cc1OCCCN1CCCCC1` [Example 732, N-(5-(1,1-dimethylethyl)-3-isoxazolyl)-6-((6-(methoxy)-7-((3-(1-piperidinyl)propyl)oxy)-4-quinazolinyl)oxy)-1-naphthalenecarboxamide] reads less than 100 nM.
With `COc1cc2nccc(Oc3ccc4c(NC(=O)c5ccccc5F)cccc4c3)c2cc1OC` [Example 120, N-[6-(6,7-dimethoxy-quinolin-4-yloxy)-naphthalen-1-yl]-2-fluoro-benzamide], the IC50 in series [2] (VEGF-stimulated) is less than 500 nM.
For `COc1cc2nccc(Oc3ccc4c(C(=O)Nc5ncc(C)s5)cccc4c3)c2cc1OC` [Example 289, 6-((6,7-bis(methoxy)-4-quinolinyl)oxy)-N-(5-methyl-1,3-thiazol-2-yl)-1-naphthalenecarboxamide], the IC50 in series [1] is less than 100 nM.
On the same count and under the same terms, the result for `COc1cc2nccc(Oc3ccc4c(C(=O)Nc5cc(C(C)(C)C)on5)cccc4c3F)c2cc1OC` [Example 467, 6-((6,7-bis(methoxy)-4-quinolinyl)oxy)-N-(5-(1,1-dimethylethyl)-3-isoxazolyl)-5-fluoro-1-naphthalenecarboxamide] reads less than 100 nM.
On to `COc1cc2nccc(Oc3ccc4c(C(=O)Nc5cccc(C(F)(F)F)c5)cccc4c3)c2cc1OC` [Example 116, 6-(6,7-dimethoxy-quinolin-4-yloxy)-naphthalene-1-carboxylix acid (3-trifluoromethyl-phenyl)-amide], for which the IC50 in series [2] (VEGF-stimulated) is less than 500 nM.
Turning to `COc1ccc(C(C)(C)C)cc1NC(=O)c1cccc2cc(Oc3ccnc4cc(OCCCN5CCOCC5)c(OC)cc34)ccc12` [Example 342, N-(5-(1,1-dimethylethyl)-2-(methoxy)phenyl)-6-((6-(methoxy)-7-((3-(4-morpholinyl)propyl)oxy)-4-quinolinyl)oxy)-1-naphthalenecarboxamide], the IC50 in series [1] is less than 100 nM.
Consider `COc1cc2nccc(Oc3ccc4c(NC(=O)c5ccc(Cl)cc5)cccc4c3)c2cc1OC` [Example 121, N-[6-(6,7-Dimethoxy-quinolin-4-yloxy)-naphthalen-1-yl]-4-chloro-benzamide], for which, in series [2] (VEGF-stimulated), the IC50 was less than 500 nM.
Regarding `COc1cc2nccc(Oc3ccc4c(C(=O)Nc5cc(C(F)(F)F)ccn5)cccc4c3)c2cc1OC` [Example 657, 6-((6,7-bis(methoxy)-4-quinolinyl)oxy)-N-(4-(trifluoromethyl)-2-pyridinyl)-1-naphthalenecarboxamide], the IC50 in series [1] is less than 100 nM.
The molecule `CCNC(=O)Nc1ccc2c(F)c(Oc3ccnc4cc(OCCCN5CCOCC5)c(OC)cc34)ccc2c1` [Example 111] displayed a melting point of 193.5 to 196.4 °C.
On to `COc1cc2c(Oc3ccc4c(C(=O)Nc5cc(C(C)(C)C)[nH]n5)cccc4c3)ccnc2cc1OCCCN1CCOCC1` [Example 325, N-(5-(1,1-dimethylethyl)-1H-pyrazol-3-yl)-6-((6-(methoxy)-7-((3-(4-morpholinyl)propyl)oxy)-4-quinolinyl)oxy)-1-naphthalenecarboxamide], for which the IC50 in series [1] is less than 100 nM.
With `COc1cc2nccc(Oc3ccc4c(C(=O)Nc5cc(C(C)(C)C)[nH]n5)cccc4c3)c2cc1OC` [Example 589, 6-((6,7-bis(methoxy)-4-quinolinyl)oxy)-N-(5-(1,1-dimethylethyl)-1H-pyrazol-3-yl)-1-naphthalenecarboxamide], the IC50 in series [1] is less than 100 nM.
As for `COc1cc2nccc(Oc3ccc4c(C(=O)Nc5ccc(Cl)c(C(F)(F)F)c5)cccc4c3)c2cc1OC` [Example 117, 6-(6,7-dimethoxy-quinolin-4-yloxy)-naphthalene-1-carboxylix acid (4-chloro-3-trifluoromethyl-phenyl)-amide], the IC50 in series [2] (VEGF-stimulated) was less than 500 nM.
Take `COc1cc2c(Oc3ccc4c(C(=O)Nc5cc(C(C)(C)C)on5)cccc4c3F)ccnc2cc1OCCCN1CCOCC1` [Example 611, N-(5-(1,1-dimethylethyl)-3-isoxazolyl)-5-fluoro-6-((6-(methoxy)-7-((3-(4-morpholinyl)propyl)oxy)-4-quinolinyl)oxy)-1-naphthalenecarboxamide]: the IC50 in series [1] is less than 100 nM.
As to `COc1cc2nccc(Oc3ccc4c(C(=O)Nc5ccc(Cl)cc5)cccc4c3)c2cc1OC` [Example 114, 6-(6,7-Dimethoxy-quinolin-4-yloxy)-naphthalene-1-carboxylic acid(4-chloro-phenyl)-amide], the IC50 in series [2] was less than 500 nM.
As to `COc1cc2nccc(Oc3ccc4c(C(=O)Nc5ccc(C(F)(F)F)cc5)cccc4c3)c2cc1OC` [Example 115, 6-(6,7-dimethoxy-quinolin-4-yloxy)-naphthalene-1-carboxylix acid (4-trifluoromethyl-phenyl)-amide], in series [2] (VEGF-stimulated), the IC50 was less than 500 nM.
Regarding `COc1cc2c(Oc3ccc4c(C(=O)Nc5cccc(C(F)(F)F)c5)cccc4c3)ccnc2cc1OCCCN1CCOCC1` [Example 314, 6-((6-(methoxy)-7-((3-(4-morpholinyl)propyl)oxy)-4-quinolinyl)oxy)-N-(3-(trifluoromethyl)phenyl)-1-naphthalenecarboxamide], the IC50 in series [1] is less than 100 nM.
With `COc1cc2c(Oc3ccc4c(C(=O)Nc5ccc(Cl)cc5)cccc4c3F)ccnc2cc1OCCCN1CCOCC1` [Example 816], the IC50 in series [1] was less than 100 nM.
As for `COc1cc2nccc(Oc3ccc4c(C(=O)Nc5cc(C(C)(C)C)on5)cccc4c3)c2cc1OC` [Example 583, 6-((6,7-bis(methoxy)-4-quinolinyl)oxy)-N-(5-(1,1-dimethylethyl)-3-isoxazolyl)-1-naphthalenecarboxamide], the IC50 in series [1] was less than 100 nM.
